{
  "source": "patent US8158828B2",
  "about": "“Nuclear receptor binding agents” (priority 2005, dated 2012)",
  "key": {"[1]": {"biological_target": "T1, ER-α (Rattus norvegicus, UniProt P06211)", "T1 sequence (P06211 1-600)": "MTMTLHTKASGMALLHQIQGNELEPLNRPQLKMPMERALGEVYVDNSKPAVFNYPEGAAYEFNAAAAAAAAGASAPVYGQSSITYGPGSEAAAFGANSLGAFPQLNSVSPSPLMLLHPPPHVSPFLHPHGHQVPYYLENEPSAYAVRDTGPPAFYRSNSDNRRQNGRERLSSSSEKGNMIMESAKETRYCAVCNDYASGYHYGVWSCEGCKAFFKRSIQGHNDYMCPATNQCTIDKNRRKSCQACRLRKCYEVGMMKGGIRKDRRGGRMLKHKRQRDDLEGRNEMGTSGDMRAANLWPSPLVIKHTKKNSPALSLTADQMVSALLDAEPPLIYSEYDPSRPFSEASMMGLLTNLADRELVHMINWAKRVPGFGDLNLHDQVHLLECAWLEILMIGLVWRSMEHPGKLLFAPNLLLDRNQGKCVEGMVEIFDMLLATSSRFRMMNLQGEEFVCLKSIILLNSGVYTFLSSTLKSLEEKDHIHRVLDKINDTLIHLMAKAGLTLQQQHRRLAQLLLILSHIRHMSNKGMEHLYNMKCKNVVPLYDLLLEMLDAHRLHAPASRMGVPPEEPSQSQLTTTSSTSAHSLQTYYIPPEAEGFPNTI", "experiment": "ER-α transactivation, ERE-LUC in COS or 293 cells", "type": "cell-based", "set-up": "% estardiol activity, ER-α: dose or concentration left out as unconfirmed", "conditions": "for EC50: ER alpha agonists; for IC50: ER alpha antagonists", "experimental": "FIG. 1: Effects of the indicated compounds on ER-α transactivation. COS or 293 cells plated in DME without phenol red+10% charcoal stripped fetal bovine serum (csFBS) at 90,000 cells per well of 24 well plates were transfected with 0.25 μg ERE-LUC, 0.02 μg CMV-LUC (Renilla) and 25 ng of ER-α by lipofectamine. Twenty four hours after transfection, the cells were treated as indicated in the figure, harvested 48 hrs after transfection and were assayed for firefly and renilla luciferase.\n(§1) FIG. 5: Effect of the indicated compounds on ER-α transactivation. COS or 293 cells plated in DME without phenol red+10% csFBS at 90,000 cells per well of a 24 well plate were transfected with 0.25 μg ERE-LUC, 0.02 μg CMV-LUC (Renilla) and 5 ng of ER-α by lipofectamine. Twenty four hours after transfection, the cells were treated as indicated in the figure, harvested 48 hrs after transfection and were assayed for firefly and renilla luciferase.\nas §1, with “FIG. 9:” for “FIG. 5:”, “csFBS” for “csFBS at 90,000 cells”, “and 25” for “and 5”\nAlso 25 ng of ER-α (FIGS. 1, 5, and 9), 50 ng of ER-β (FIGS. 2, 6 and 10) or 12.5 ng of AR (FIG. 3) were introduced by lipofectamine. All the receptors were cloned from rat tissue into the PCR3.1 vector backbone. […] Cells were harvested 48 hrs after transfection, and assayed for firefly and Renilla luciferase activity.\nAlso 25 ng of ER-α), 50 ng of ER-β or 12.5 ng of AR were introduced by lipofectamine. All the receptors were cloned from rat tissue into the PCR3.1 vector backbone. […] Cells were harvested 48 hrs after transfection, and assayed for firefly and Renilla luciferase activity."}, "[2]": {"biological_target": "T2, ER-β (Rattus norvegicus, UniProt Q62986)", "T2 construct": "expressed in transfected cells; host or cells: COS or 293 cells", "T2 sequence (Q62986 whole entry)": "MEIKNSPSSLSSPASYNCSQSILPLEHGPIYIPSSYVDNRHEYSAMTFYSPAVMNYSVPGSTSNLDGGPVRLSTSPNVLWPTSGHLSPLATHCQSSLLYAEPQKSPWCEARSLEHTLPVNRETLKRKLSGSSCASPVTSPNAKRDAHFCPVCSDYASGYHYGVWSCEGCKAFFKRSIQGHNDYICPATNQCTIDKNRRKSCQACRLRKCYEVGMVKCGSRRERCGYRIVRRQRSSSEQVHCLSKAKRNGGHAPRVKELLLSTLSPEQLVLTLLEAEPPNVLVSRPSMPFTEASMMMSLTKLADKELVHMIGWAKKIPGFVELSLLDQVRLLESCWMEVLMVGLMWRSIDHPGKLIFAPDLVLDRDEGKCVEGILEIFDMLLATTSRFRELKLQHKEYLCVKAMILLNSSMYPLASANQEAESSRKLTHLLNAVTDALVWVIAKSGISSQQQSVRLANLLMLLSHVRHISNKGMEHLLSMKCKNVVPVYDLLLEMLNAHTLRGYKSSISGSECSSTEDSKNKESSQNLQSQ", "experiment": "ER-β transactivation, ERE-LUC in COS or 293 cells", "type": "cell-based", "set-up": "% estardiol activity, ER-β: dose or concentration left out as unconfirmed", "conditions": "for ER-β LUC expression, compound alone: COS or 293 cells", "experimental": "as §1, with “FIG. 2:” for “FIG. 5:”, “on ER-β” for “on ER-α”, “and 50” for “and 5”, “of ER-β” for “of ER-α”\nas §1, with “FIG. 6:” for “FIG. 5:”, “on ER-β” for “on ER-α”, “and 50” for “and 5”, “of ER-β” for “of ER-α”, “and” for “and were”\nas §1, with “FIG. 10:” for “FIG. 5:”, “on ER-β” for “on ER-α”, “in DME+10%” for “in DME without phenol red+10%”, “and 50” for “and 5”, “of ER-β” for “of ER-α”\n(§2) All the receptors were cloned from rat tissue into the PCR3.1 vector backbone. […] Cells were harvested 48 hrs after transfection, and assayed for firefly and Renilla luciferase activity.\nas §2"}, "[3]": {"experiment": "Metabolic stability in human liver microsomes", "conditions": "1 μM substrate, 0.5 mg/mL microsomes", "experimental": "Each substrate or reference control was dissolved at a concentration of 10 mM in DMSO, from which a 5 μM spiking solution was prepared by dilution in water. Substrates (1 μM) were incubated in the presence of human liver microsomes (Xenotech LLC, Kansas City Mo.) at 0.5 mg/mL fortified with an NADPH regenerating system at 37° C. and pH 7.4. The NADPH regenerating system consisted of glucose-6-phosphate dehydrogenase (1 units/mL) in 0.05M K2HPO4. Duplicate incubations were performed in 96-well polypropylene cluster tubes in a final volume of 250 μL per reaction. At 0, 2, 4, 6, 10, 30, and 60 minutes a stop solution (300 μL acetonitrile) was added to aliquots of the reaction mixture. Precipitated protein was removed by centrifugation (3000 rpm for 15 minutes) and the supernatants were transferred to clean 96-well plates for analysis.\nThe samples were injected onto a Phenomenex Luna hexylphenyl 50×2 mm i.d. 5 uM, column fitted with a guard column. An isocratic mobile phase consisting of 50% acetonitrile and 0.1% formic acid in water was used at a flow rate of 0.3 mL/min. The protonated molecular ion (M+H)^+ of the analyte was monitored by MDS/Sciex API 4000QTrap triple quadrupole mass spectrometer using electrospray positive mode ionization with a temperature of 500° C. and a spray voltage of 4000V. Total analysis time was 1.5 min per sample.\nMetabolic stability was defined as the amount of substrate metabolized by the incubation with hepatic microsomes and expressed as a percentage of the initial amount of substrate (% remaining) based on peak area. Initial substrate concentration for each analyte was 1 μM. The initial peak area of each substrate was determined at time zero and metabolic stability was assessed based on the change in analyte peak area from time 0 min to a single fixed timepoint for each sample (2-60 min, representative timepoints are shown in Table 2 below)."}, "[4]": {"conditions": "ER beta agonists, read-out: EC50 (ER-β)"}},
  "note": "Where two headings read alike, the source gives them in different places.",
  "data": [
    {"smiles": "O=C(c1cccc(O)c1)N(c1ccc(O)cc1)c1ccc(O)cc1", "note": "[Compound 3b, 3-hydroxy-N-bis-(4-hydroxyphenyl)-benzamide]", "values": [
      {"measurement": "EC50", "setting": "[1]", "value": 10, "unit": "nM"}
    ]},
    {"smiles": "O=C(c1ccccc1)N(c1ccccc1)c1ccc(O)cc1", "note": "[Compound 3g, N-(4-hydroxyphenyl)-N-phenyl-benzamide]", "values": [
      {"measurement": "ER-β LUC expression, compound alone", "setting": "[2]", "value": "most potent in stimulating ER-β"},
      {"measurement": "% estardiol activity, ER-α", "setting": "[1]", "value": 62.5, "unit": "%"}
    ]},
    {"smiles": "O=C(c1ccc(O)cc1)N(c1ccccc1)c1ccc(O)cc1", "note": "[Compound 3i, 4-hydroxy-N-(4-hydroxyphenyl)-N-phenyl-benzamide]", "values": [
      {"measurement": "ER-β LUC expression, compound alone", "setting": "[2]", "value": "most potent in stimulating ER-β"},
      {"measurement": "% estardiol activity, ER-α", "setting": "[1]", "value": 77.8, "unit": "%"},
      {"measurement": "ER-α activity (luciferase expression), compound alone", "setting": "[1]; COS or 293 cells", "value": "most potent in stimulating ER-α"}
    ]},
    {"smiles": "O=C(c1ccc(O)cc1)N(c1ccccc1)c1cccc(O)c1", "note": "[Compound 3j, 4-hydroxy-N-(3-hydroxyphenyl)-N-phenyl-benzamide]", "values": [
      {"measurement": "% estardiol activity, ER-α", "setting": "[1]", "value": 62, "unit": "%"}
    ]},
    {"smiles": "O=C(c1ccc(F)cc1)N(c1ccc(O)cc1)c1ccc(O)cc1", "note": "[Compound 3k, N,N-bis(4-hydroxyphenyl)-4-fluoro-benzamide]", "values": [
      {"measurement": "% Remaining 0 min", "setting": "[3]; 0 min", "value": 100, "unit": "%"},
      {"measurement": "% Remaining 10 min", "setting": "[3]; 10 min", "value": 119, "unit": "%"},
      {"measurement": "% Remaining 30 min", "setting": "[3]; 30 min", "value": 120, "unit": "%"},
      {"measurement": "% Remaining 60 min", "setting": "[3]; 60 min", "value": 94, "unit": "%"},
      {"measurement": "EC50", "setting": "[1]", "value": 12, "unit": "nM"}
    ]},
    {"smiles": "O=C(c1ccc(O)cc1)N(c1ccc(O)cc1)c1ccc(-c2ccccc2)cc1", "note": "[Compound 3v, N-biphenyl-4-yl-4-hydroxy-N-(4-hydroxyphenyl)-benzamide]", "values": [
      {"measurement": "EC50", "setting": "[1]", "value": 22.4, "unit": "nM"}
    ]},
    {"smiles": "Cl.O=C(c1cccc(OCCN2CCCCC2)c1)N(c1ccccc1)c1ccccc1", "note": "[Compound 4d, N,N-diphenyl-[3-(2-piperidinylethoxy)]-benzamide hydrochloride]", "values": [
      {"measurement": "% estardiol activity, ER-β", "setting": "[2]", "value": 30.7, "unit": "%"},
      {"measurement": "% estardiol activity, ER-α", "setting": "[1]", "value": 16.8, "unit": "%"}
    ]},
    {"smiles": "Cc1ccc(C(=O)N(c2ccc(O)cc2)c2ccc(O)cc2)cc1C", "note": "[Compound 10d, N,N-bis(4-hydroxyphenyl)-3,4-dimethylbenzamide]", "values": [
      {"measurement": "EC50", "setting": "[2]; [4]", "value": 85, "unit": "nM"},
      {"measurement": "% estardiol activity, ER-α", "setting": "[1]", "value": 21.4, "unit": "%"}
    ]},
    {"smiles": "O=C(c1ccc(O)c(F)c1)N(c1ccccc1)c1ccc(O)cc1", "note": "[Compound 10f, 3-fluoro-4-hydroxy-N-(4-hydroxyphenyl)-N-phenylbenzamide]", "values": [
      {"measurement": "EC50", "setting": "[2]", "value": 42, "unit": "nM"},
      {"measurement": "% estardiol activity, ER-α", "setting": "[1]", "value": 85, "unit": "%"}
    ]},
    {"smiles": "Cc1cccc(C(=O)N(c2ccc(O)cc2)c2ccc(O)cc2)c1C", "note": "[Compound 10j, N,N-bis(4-hydroxyphenyl)-2,3-dimethylbenzamide]", "values": [
      {"measurement": "IC50", "setting": "[2]", "value": 20, "unit": "nM"}
    ]},
    {"smiles": "CCCc1ccc(C(=O)N(c2ccc(O)cc2)c2ccc(O)cc2)cc1", "note": "[Compound 10l, N,N-bis(4-hydroxyphenyl)-4-propylbenzamide]", "values": [
      {"measurement": "EC50", "setting": "[2]", "value": 27, "unit": "nM"},
      {"measurement": "% estardiol activity, ER-α", "setting": "[1]", "value": 32, "unit": "%"}
    ]},
    {"smiles": "O=C(c1ccc(O)c(O)c1)N(c1ccc(O)cc1)c1ccc(O)cc1", "note": "[Compound 10m, 3,4-dihydroxy-N,N-bis(4-hydroxyphenyl)-benzamide]", "values": [
      {"measurement": "IC50", "setting": "[1]", "value": "< 10", "unit": "nM"}
    ]},
    {"smiles": "Cc1cc(C(=O)N(c2ccc(O)cc2)c2ccc(O)cc2)ccc1O", "note": "[Compound 10n, 4-hydroxy-N,N-bis(4-hydroxyphenyl)-3-methylbenzamide]", "values": [
      {"measurement": "IC50", "setting": "[2]; ER beta antagonist, read-out: IC50 (ER-β)", "value": 47, "unit": "nM"}
    ]},
    {"smiles": "CCCc1ccc(C(=O)N(c2ccc(O)cc2)c2ccc(OCCN3CCCCC3)cc2)cc1", "note": "[Compound 10o, N-(4-hydroxyphenyl)-N-(4-(2-(piperidin-1-yl)ethoxy)phenyl)-4-propylbenzamide]", "values": [
      {"measurement": "% estardiol activity, ER-α", "setting": "[1]", "value": 12, "unit": "%"},
      {"measurement": "inhibition of estradiol (E2) induced ER-α activity (luciferase expression)", "setting": "[1]; COS or 293 cells, with estrogen", "value": "inhibited estrogen stimulated luciferase expression"}
    ]},
    {"smiles": "Cc1cccc(CN(c2ccc(O)cc2)c2ccc(O)cc2)c1C", "note": "[Compound 10t, 4,4′-(2,3-dimethyl-benzylazanediyl)diphenol]", "values": [
      {"measurement": "IC50", "setting": "[2]", "value": 17, "unit": "nM"}
    ]},
    {"smiles": "O=C(c1ccc(O)cc1)N(c1ccc(O)cc1)C1CCCCC1", "note": "[Compound 10w, N-cyclohexyl-4-hydroxy-N-(4-hydroxyphenyl)benzamide]", "values": [
      {"measurement": "% estardiol activity, ER-α", "setting": "[1]", "value": 21.9, "unit": "%"}
    ]},
    {"smiles": "Oc1ccc(CN(c2ccc(O)cc2)c2ccc(F)cc2)cc1", "note": "[Compound 10x, 4-((4-fluorophenyl)(4-hydroxybenzyl)amino)phenol]", "values": [
      {"measurement": "EC50", "setting": "[1]", "value": 16, "unit": "nM"}
    ]},
    {"smiles": "O=C(c1cccc2ccccc12)N(c1ccc(O)cc1)c1ccc(OCCN2CCCCC2)cc1", "note": "[Compound 11f, N-(4-hydroxyphenyl)-N-(4-(2-(piperidin-1-yl)ethoxy)phenyl)-1-naphthamide]", "values": [
      {"measurement": "IC50", "setting": "[1]", "value": 69, "unit": "nM"}
    ]},
    {"smiles": "O=C(c1cccc(F)c1)N(c1ccc(O)cc1)c1ccc(OCCN2CCCCC2)cc1", "note": "[Compound 11g, 3-fluoro-N-(4-hydroxyphenyl)-N-(4-(2-(piperidin-1-yl)ethoxy)phenyl)benzamide]", "values": [
      {"measurement": "IC50", "setting": "[1]", "value": 16, "unit": "nM"}
    ]},
    {"smiles": "CCCCCc1ccc(C(=O)N(c2ccc(O)cc2)c2ccc(O)cc2)cc1", "note": "[Compound 11p, N,N-bis(4-hydroxyphenyl)-4-pentylbenzamide]", "values": [
      {"measurement": "EC50", "setting": "[2]; [4]", "value": "< 10", "unit": "nM"}
    ]}
  ]
}
